Source: US20180116993A1, “MODULATORS OF FARNESOID X RECEPTOR AND METHODS FOR THE USE THEREOF” (XIAMEN UNIVERSITY, priority 2015, published 2018)
Marks after values point to notes of the source that are not given here.

Key:
[1] = test system: mice with APAP-induced liver injury; test: Acetaminophen (APAP)-induced liver injury in mouse; format: in vivo; details: 5 mg/kg i.p. once daily for five days, then APAP 500 mg/kg, 8-week age mice; for ALT (U/L): serum, vehicle 786 ± 111
Excerpt: Methods: Acetaminophen (APAP)-induced liver injury in mouse is a commonly used model to study drugs protecting liver. Overdose of APAP causes liver injury by inducing the production of reactive oxygen species and reactive nitrogen species, and excessive consumption of reductive substances such as antioxidant glutathione (GSH), leading to the reduction of GSH in vivo, and the following upregulation of the activities of the aspartate aminotransferase (AST), the alanine aminotransferase (ALT) and the lactate dehydrogenase (LDH), which will result in liver inflammation and necrosis. In this example, the APAP-induced liver injury was used to detect the protection and repair functions of our compounds in liver injury.
One-year or 8-week age mice were maintained under environmentally controlled conditions with free access to standard chow diet and water. Animal experiments were conducted in the barrier facility of the Laboratory Animal Center, Xiamen University, approved by the Institutional Animal Use and Care Committee of Xiamen University, China.
Compounds were solved with DMSO and then prepared to work concentration with 40% HBC (2-hydroxypropyl-β-cyclodextrin) in which the final work concentrations of compounds are 5 mg/kg body weight, 10 mg/kg or 20 mg/kg in 100 μl injection volume and the concentration of DMSO is 10%. Compounds were intraperitoneal (i.p.) injected once daily for five days. For Feroline and Tschimganine, one-year age mice were used in the experiment. For other compounds, 8-week age mice were used. […] For Tschimganine, 20 mg/kg dose of compound was administered to mice. For other compounds, 5 mg/kg dose of compounds were administered to mice. Six hours after the fifth injection, 500 mg/kg body weight of APAP solved in PBS was i.p. injected to the mice. 24 hours later, mice were sacrificed. Part of each liver was fixed in 4% paraformaldehyde, and the liver histology characterization was analyzed by haematoxylin and eosin (H&E) staining with paraffin-embedded sections by standard procedures. Other liver tissues were collected for detecting the GSH levels, and the mRNA expression of genes involved in liver repairing, such as GPX1 and UGT1a1, by RT-PCR. The serums were collected to measure enzymes activities including AST, ALT and LDH. For the synthetic derivatives, ALT and GSH were selected as indicating markers for the function of these compounds.

[2] = test system: inflammatory cytokines in tissues of db/db mice; test: Inflammatory cytokine mRNA levels in tissues of high-fat diet fed db/db mice (RT-PCR); format: in vivo, mouse; details: 5 mg/kg; for mRNA level of iNOS (fold), Liver tissue: vehicle 1.06 ± 0.14; for mRNA level of iNOS (fold), Colon tissue: vehicle 1.12 ± 0.23; for WAT, mRNA level (fold), IL-1β / WAT, mRNA level (fold), TNFα: white adipose tissue; for WAT, mRNA level (fold), IL-1β: vehicle 1.06 ± 0.2; for WAT, mRNA level (fold), TNFα: vehicle 1.15 ± 0.13
Excerpt: In this example, we detected the levels of various inflammatory cytokines including iNOS, IFNγ, TGFβ, TNFα, COX2, IL-1β, IL-6, SAA1, MIP-1α and CD36 in liver, kidney, white adipose tissue (WAT) in various mice models, including wild type mice treated with APAP in example 4, high-fat diet fed diabetic and obesity db/db and KK-Ay mice in example 5, high-fat diet fed wild-type mice in Example 5, as well as in primary hepatocytes with LPS induced inflammation, using RT-PCR.

db/db mice [3] = test: Serum/blood metabolic parameters in high-fat diet fed db/db mice; format: in vivo, mouse; details: 10 mg/kg, treat for 10 days, vehicle 527 ± 63
In short: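 db/db mice aged 8–10 weeks on high-fat diet received compounds i.p. once daily for 7, 10, 11 or 14 days, then were fasted 6 h and sacrificed. Serum glucose (glucose oxidase), insulin (ELISA), cholesterol, FFA and triglycerides measured by kits; some blood glucose by tail strips after the 6th injection and 16 h fast.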

db/db mice [4] = test: Hepatic triglyceride, liver histology, serum ALT and ALP in high-fat diet fed db/db mice; format: in vivo, mouse; details: for Hepatic triglyceride (mM/g): vehicle 148 ± 14; for Serum ALP (U/L): vehicle 129 ± 15
In short: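 High-fat diet fed db/db mice aged 8-10 weeks dosed 10 mg/kg compound once daily for 10 days. Liver sections stained with H&E and 0.3% oil red O; hepatic triglyceride measured by tissue assay kit; serum ALP and ALT activities measured by kit.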

[5] = 10 mg/kg for 10 days, vehicle 377 ± 48, Table 15
[6] = 10 mg/kg once daily for 10 days
[7] = 10 mg/kg once daily for 10 days, vehicle 377 ± 48, Table 17

SMILES	ALT (U/L) [1]	mRNA level of iNOS (fold), Liver tissue [2]	mRNA level of iNOS (fold), Colon tissue [2]	Serum Glucose (mg/dl) (db/db mice [3])	Hepatic triglyceride (mM/g) (db/db mice [4]; 10 mg/kg for 10 days)	Serum ALT (U/L) (db/db mice [4]; [5])	Serum ALP (U/L) (db/db mice [4]; [6])	Serum ALT (U/L) (db/db mice [4]; [7])	Hepatic GSH (μM/g liver tissue) ([1]; vehicle 9.1 ± 0.5)	WAT, mRNA level (fold), IL-1β [2]	WAT, mRNA level (fold), TNFα [2]
O=C(OC1CCCCCCC1)c1ccc(O)cc1 [XD-10, cyclooctyl 4-hydroxybenzoate]	114 ± 31 ^c U/L	0.52 ± 0.3^a fold	0.49 ± 0.21^a fold	–	–	–	–	–	–	–	–
CC1(C)C2CCC1(C)C(OC(=O)C1CCC(O)CC1)C2 (stereo not drawn) [XD-20, 1,7,7-trimethyl-bicyclo[2.2.1]-heptan-2-yl 4-hydroxy-cyclohexane-carboxylate]	–	0.51 ± 0.2^a fold	0.5 ± 0.18^a fold	396 ± 55^a mg/dl	60 ± 15^b mM/g	115 ± 29 ^a U/L	73 ± 19^a U/L	115 ± 29^a U/L	–	–	–
CC1(C)C2CCC1(C)C(OC(=O)c1ccc(N)cc1)C2 (stereo not drawn) [XD-5, 1,7,7-trimethyl-bicyclo[2.2.1]-heptan-2-yl 4-aminobenzoate]	197 ± 57 ^b U/L	–	–	–	–	–	–	–	12.8 ± 0.3 ^b μM/g liver tissue	0.33 ± 0.2^a fold	0.56 ± 0.17^a fold
Nc1ccc(C(=O)OC2CCCCCCC2)cc1 [XD-16, cyclooctyl 4-aminobenzoate]	127 ± 46 ^b U/L	0.39 ± 0.18^a fold	0.42 ± 0.22^a fold	404 ± 46^a mg/dl	81 ± 23 ^a mM/g	104 ± 33 ^a U/L	88 ± 10^b U/L	104 ± 33^a U/L	–	–	–
Cc1cc(C(=O)OC2CC3CCC2(C)C3(C)C)ccc1N (stereo not drawn) [XD-4, 1,7,7-trimethyl-bicyclo[2.2.1]-heptan-2-yl 4-amino-3-methylbenzoate]	236 ± 65 ^a U/L	0.41 ± 0.1^a fold	0.53 ± 0.37^a fold	–	–	–	–	–	–	–	–
Nc1ccc(C(=O)OC2CCC3CCCCC3C2)cc1 (stereo not drawn) [XD-23, decahydro-naphthalen-2-yl 4-aminobenzoate]	130 ± 62 ^a U/L	0.2 ± 0.1^a fold	0.55 ± 0.29^a fold	–	–	–	–	–	–	0.64 ± 0.13^a fold	0.6 ± 0.21^a fold
